Patent publication US12161694B2, “Methods and compositions for regulating innate lymphoid cell inflammatory responses” (The Broad Institute, Inc., priority 2017, dated 2024)
“Also recorded” adds a separate entry of the source. Where no end group is shown, it is not given here.

How the values were obtained:
Th2 cells = experiment: T cell in vitro culture (Th2 differentiation), Il5/Il13 qPCR; type: cell-based, mouse; details: Th2 cells cultured with or without NMU 1 μg/ml
Procedure: (§1) Quantitative real-time PCR. RNA was isolated using RNeasy Plus Mini Kit (Qiagen) and reverse transcribed to cDNA with iScript cDNA Synthesis Kit (Bio-Rad). Gene expression was analyzed by quantitative real-time PCR on a ViiA7 System (Thermo Fisher Scientific) using TaqMan Fast Advanced Master Mix (Thermo Fisher Scientific) with the following primer/probe sets: IL-5 (Mm00439646_m1), IL-13 (Mm00434204_m1), IL-17RB (Mm00444709_m1), Nmur1 (Mm04207994 m1), Nmur2 (Mm00600704_m1), and β-Actin (Applied Biosystems). Expression values were calculated relative to β-Actin detected in the same sample by duplex qPCR.
T cell in vitro culture. CD4^+ T cells were isolated as described previously^4 and sorted for naive T cells (CD4^+ CD62L^+ CD44^low) on a FACS Aria. Naive T cells were cultured in the presence of plate-bound anti-CD3 (1 μg/ml; Bio X Cell) and anti-CD28 (1 μg/ml; Bio X Cell) antibodies. […]
Quantitative real-time PCR. […] Gene expression was analyzed by quantitative real-time PCR on a ViiA7 System (Thermo Fisher Scientific) using TaqMan Fast Advanced Master Mix (Thermo Fisher Scientific) with the following primer/probe sets: Il5 (Mm00439646_m1), Il13 (Mm00434204_m1), Il17rb (Mm00444709_m1), Nmur1 (Mm04207994_m1), Nmur2 (Mm00600704_m1), Nmu (Mm00479868_m1) and Actb (Applied Biosystems). Expression values were calculated relative to Actb detected in the same sample by duplex qPCR. […]

[1] = system: ILCs sorted from the lungs of naive mice; experiment: ILC in vitro culture: Il5/Il13 mRNA (qPCR) and IL-5/IL-13 in supernatant (LegendPlex); type: cell-based, mouse
Procedure: (§2) Fluorescence-activated cell sorting of innate lymphoid cells. After dissociation, single cell suspensions were incubated with CD90.2 MicroBeads (Miltenyi Biotec) on ice and enriched for CD90.2^+ cells by magnetic separation using LS columns according to the manufacturer's protocol. CD90.2^+ lung cells were then stained on ice with antibodies for sorting. ILCs were defined as 7AAD^− CD45^+ CD90.2^+ CD127^+ Lineage (CD11b, CD11c, CD19, NK1.1, CD3ε, CD4, CD8a, TCRβ, TCRγδ)^− cells and sorted on a BD FACS Aria (BD Biosciences).
ILC in vitro culture. For in vitro experiments 5,000 ILCs/well were cultured in a 96 well round bottom plate with 20 ng/ml IL-7 (R&D Systems), 200 ng/ml IL-33 (BioLegend) or 200 ng/ml IL-25 (R&D Systems) with or without 1 μg/ml Neuromedin U (US Biological). In some cases purified CD90.2^+ lung cells were first labeled with CellTrace Violet (Thermo Fisher Scientific), then sorted as described above, and cultured for 3 days under the indicated conditions.
as §1
Cytokine quantification. Cytokine concentrations in BAL fluid, lung and supernatant of in vitro ILC cultures were analyzed by the LegendPlex Mouse Th Cytokine Panel (13-plex) (BioLegend) according to the manufacturer's instructions and analyzed on a FACS Calibur (BD Biosciences).
as §2, with “protocol. CD90.2^−” for “protocol. CD90.2^+”, “(CD11b, CD 11c,” for “(CD11b, CD11c,”
ILC in vitro culture. For in vitro experiments 5,000 ILCs/well were cultured in a 96 well round bottom plate with 20 ng/ml IL-7 (R&D Systems), 200 ng/ml IL-25 (R&D Systems) or 20 ng/ml, 2 ng/ml or 0.2 ng/ml IL-33 (BioLegend) with or without 1 μg/ml Neuromedin U (US Biological). In some cases purified CD90.2^+ lung cells were first labeled with CellTrace Violet (Thermo Fisher Scientific), then sorted as described above, and cultured for 3 days under the indicated conditions.
as §1, with “Il5” for “IL-5”, “Il13” for “IL-13”, “Il17rb” for “IL-17RB”, “(Mm04207994_m1),” for “(Mm04207994 m1),”, “(Mm00600704_m1), Nmu (Mm00479868_m1)” for “(Mm00600704_m1),”, “Actb” for “β-Actin”

Substance: Neuromedin U (FRVDEEFQSPFASQSRGYFLFRPRN-NH2; listed as Homo sapiens) [NMU, neuropeptide ligand of Nmur1 (US Biological)]
- Il5 and Il13 expression in Th2 cells (Th2 cells): not observed; also recorded: similar; also recorded: did not affect; also recorded: does not alter
- Il5 and Il13 levels, NMU in combination with IL-33 ([1]; Example 1: ILCs in vitro, IL-33 200 ng/ml with NMU 1 μg/ml vs IL-33 alone): did not significantly alter; also recorded: neither amplifies
- IL-33-induced IL-5 and IL-13 secretion with NMU ([1]; Example 2: ILCs in vitro, IL-33 20, 2 or 0.2 ng/ml with NMU 1 μg/ml, LegendPlex): enhanced
- Il5 and Il13 expression in ILCs cultured in vitro ([1]; IL-7 20 ng/ml, IL-25 200 ng/ml, IL-33, NMU 1 μg/ml, mRNA by qPCR (protein by LegendPlex)): modest upregulation; also recorded: far lower than those observed in response to IL-25 and IL-33; also recorded: only mildly upregulated
- increase of IL-5 and IL-13 protein levels in response to IL-25 ([1]; ILCs in vitro, IL-25 in conjunction with NMU vs IL-25 alone, LegendPlex): at least 8 fold
- increase of Il5 and Il13 mRNA levels in response to IL-25 ([1]; ILCs in vitro, IL-25 in conjunction with NMU vs IL-25 alone, qPCR): at least 3.6 fold
